Experimental findings from BindingDB's records for doi:10.7270/Q2PK0DK8 (Nmmlsc, 2009) are described below.

Bounds are passed on as bounds.

This test has as its target Ras-related C3 botulinum toxin substrate 1 (Mus musculus, UniProt P63001). Nature of the test: analog inhibition of wildtype Rac1 nucleotide binding – biochemical, oxadiazole analogs, multiplex bead flow cytometry, SAR follow-up (AID 2027). On the technique in general: In flow cytometry, cells or beads pass a laser one at a time.
The mark [1] stands for this setting: inactive by the depositor's call.

Turning to `COc1cccc(-c2noc(CCC(=O)N3CCN(c4cc(C)ccc4C)CC3)n2)c1`, the midpoint of the response, the EC50, lay at 6.12 µM. In turn, `Cc1ccc(C)c(N2CCN(C(=O)CCc3nc(-c4ccccc4C)no3)CC2)c1` gave an EC50 of 1.73 µM. Against the preceding compound, the EC50 is about 3.5-fold lower. As for `COc1ccc(-c2noc(CCC(=O)N3CCN(c4cccc(Cl)c4)CC3)n2)cc1`, the EC50 is > 30 µM.

For the compound `Cc1ccc(C)c(N2CCN(C(=O)CCc3nc(-c4ccccc4C(F)(F)F)no3)CC2)c1`, the 50% effective concentration (EC50) was 2.11 µM. Compound `COc1ccc(-c2noc(CCC(=O)N3CCN(c4ccccc4C)CC3)n2)cc1` displayed an EC50 of 1.35 µM. As for `COc1ccc(-c2ccc(CCC(=O)N3CCN(c4cc(C)ccc4C)CC3)s2)cc1`, the EC50 is > 30 µM.

`COc1ccc(-c2noc(CCC(=O)N3CCN(c4cccc(C)c4C)CC3)n2)cc1` [1-[4-(2,3-dimethylphenyl)-1-piperazinyl]-3-[3-(4-methoxyphenyl)-1,2,4-oxadiazol-5-yl]-1-propanone] displayed a concentration giving a half-maximal response (EC50) of 1.31 µM. This counts as single-digit micromolar. Take `COc1ccc(-c2noc(CCC(=O)N3CCN(c4cc(C)ccc4C)CC3)n2)cc1` [1-[4-(2,5-dimethylphenyl)-1-piperazinyl]-3-[3-(4-methoxyphenyl)-1,2,4-oxadiazol-5-yl]-1-propanone]: the 50% effective concentration (EC50) worked out at 5.08 µM. `Cc1ccc(-c2noc(CCC(=O)N3CCN(c4cc(C)ccc4C)CC3)n2)cc1` [1-[4-(2,5-dimethylphenyl)-1-piperazinyl]-3-[3-(4-methylphenyl)-1,2,4-oxadiazol-5-yl]-1-propanone] showed an EC50 of 3.2 µM. In turn, `Cc1ccc(C)c(N2CCN(C(=O)CCc3nc(-c4ccc(C(F)(F)F)cc4)no3)CC2)c1` [1-[4-(2,5-dimethylphenyl)-1-piperazinyl]-3-[3-[4-(trifluoromethyl)phenyl]-1,2,4-oxadiazol-5-yl]-1-propanone] yielded a half-maximal effective concentration (EC50) of 2.19 µM.

As for `COc1ccc(-c2noc(CCCCC(=O)N3CCN(c4cc(C)ccc4C)CC3)n2)cc1` [1-[4-(2,5-dimethylphenyl)-1-piperazinyl]-5-[3-(4-methoxyphenyl)-1,2,4-oxadiazol-5-yl]-1-pentanone], a half-maximal effect (EC50) was put at 21 µM. As for `COc1ccc(-c2noc(CC(=O)N3CCN(c4cc(C)ccc4C)CC3)n2)cc1` [1-[4-(2,5-dimethylphenyl)piperazin-1-yl]-2-[3-(4-methoxyphenyl)-1,2,4-oxadiazol-5-yl]ethanone], the EC50 under setting [1] came out at 7.52 µM. `Cc1cccc(-c2noc(CCC(=O)N3CCN(c4cc(C)ccc4C)CC3)n2)c1` [1-[4-(2,5-dimethylphenyl)piperazin-1-yl]-3-[3-(3-methylphenyl)-1,2,4-oxadiazol-5-yl]propan-1-one] returned an EC50 of 1.22 µM. On to `COc1ccc(-c2cc(CCC(=O)N3CCN(c4cc(C)ccc4C)CC3)on2)cc1` [1-[4-(2,5-dimethylphenyl)piperazin-1-yl]-3-[3-(4-methoxyphenyl)-1,2-oxazol-5-yl]propan-1-one], for which the concentration giving a half-maximal response (EC50) is > 30 µM. The compound `COc1ccc(-c2coc(CCC(=O)N3CCN(c4cc(C)ccc4C)CC3)n2)cc1` [1-[4-(2,5-dimethylphenyl)piperazin-1-yl]-3-[4-(4-methoxyphenyl)-1,3-oxazol-2-yl]propan-1-one] returned a concentration giving a half-maximal response (EC50) of 2.2 µM. For the compound `COc1ccc(-c2ccc(CCC(=O)N3CCN(c4cc(C)ccc4C)CC3)[nH]2)cc1` [1-[4-(2,5-dimethylphenyl)piperazin-1-yl]-3-[5-(4-methoxyphenyl)-1H-pyrrol-2-yl]propan-1-one], the EC50 is > 30 µM. `COc1ccc(-c2noc(CCC(=O)N3CCN(c4ccccc4Cl)CC3)n2)cc1` [1-[4-(2-chlorophenyl)piperazin-1-yl]-3-[3-(4-methoxyphenyl)-1,2,4-oxadiazol-5-yl]propan-1-one] gave a 50% effective concentration (EC50) of 3.34 µM.

Compound `COc1ccc(-c2noc(CCC(=O)N3CCN(c4ccccc4F)CC3)n2)cc1` [1-[4-(2-fluorophenyl)piperazin-1-yl]-3-[3-(4-methoxyphenyl)-1,2,4-oxadiazol-5-yl]propan-1-one] showed a concentration giving a half-maximal response (EC50) of 1.11 µM.

As for `COc1ccc(-c2noc(CCC(=O)N3CCN(c4cccc(Br)c4)CC3)n2)cc1` [1-[4-(3-bromophenyl)-1-piperazinyl]-3-[3-(4-methoxyphenyl)-1,2,4-oxadiazol-5-yl]-1-propanone], the EC50 was > 30 µM. On to `COc1ccc(-c2noc(CCC(=O)N3CCN(c4cccc(F)c4)CC3)n2)cc1` [1-[4-(3-fluorophenyl)piperazin-1-yl]-3-[3-(4-methoxyphenyl)-1,2,4-oxadiazol-5-yl]propan-1-one], for which the EC50 was > 30 µM. For `COc1ccc(-c2noc(CCC(=O)N3CCN(c4ccc(Br)cc4)CC3)n2)cc1` [1-[4-(4-bromophenyl)piperazin-1-yl]-3-[3-(4-methoxyphenyl)-1,2,4-oxadiazol-5-yl]propan-1-one], under setting [1], the concentration for a half-maximal effect (EC50) amounted to 0.257 µM. With `COc1ccc(-c2noc(CCC(=O)N3CCN(c4cccc(C(F)(F)F)c4)CC3)n2)cc1` [1-{3-[3-(4-methoxyphenyl)-1,2,4-oxadiazol-5-yl]propanoyl}-4-[3-(trifluoromethyl)phenyl]piperazine], the EC50 was > 30 µM. Compound `Cc1ccc(C)c(N2CCN(C(=O)CCc3nc(-c4ccccc4Br)no3)CC2)c1` [3-[3-(2-bromophenyl)-1,2,4-oxadiazol-5-yl]-1-[4-(2,5-dimethylphenyl)-1-piperazinyl]-1-propanone] yielded a 50% effective concentration (EC50) of 1.71 µM. `Cc1ccc(C)c(N2CCN(C(=O)CCc3nc(-c4ccccc4Cl)no3)CC2)c1` [3-[3-(2-chlorophenyl)-1,2,4-oxadiazol-5-yl]-1-[4-(2,5-dimethylphenyl)-1-piperazinyl]-1-propanone] registered an EC50 of 1.19 µM. Still for that read-out and setting: in the case of `COc1ccc(-c2noc(CCC(=O)N3CCN(c4ccccc4)CC3)n2)cc1` [3-[3-(4-methoxyphenyl)-1,2,4-oxadiazol-5-yl]-1-(4-phenylpiperazin-1-yl)propan-1-one] it was > 30 µM. Under setting [1], `COc1ccc(-c2noc(CCC(=O)N3CCN(c4ccccc4OC)CC3)n2)cc1` [3-[3-(4-methoxyphenyl)-1,2,4-oxadiazol-5-yl]-1-[4-(2-methoxyphenyl)-1-piperazinyl]-1-propanone] registered an EC50 of 2.29 µM. That is a single-digit micromolar value. Consider `COc1ccc(-c2noc(CCC(=O)N3CCN(c4ccc(OC)cc4)CC3)n2)cc1` [3-[3-(4-methoxyphenyl)-1,2,4-oxadiazol-5-yl]-1-[4-(4-methoxyphenyl)piperazin-1-yl]propan-1-one], for which, under setting [1], the EC50 amounted to 0.527 µM. Compared with the last compound, the EC50 is about 4.3-fold lower. With `COc1ccc(-c2noc(CCC(=O)N3CCN(c4ccc(C)cc4)CC3)n2)cc1` [3-[3-(4-methoxyphenyl)-1,2,4-oxadiazol-5-yl]-1-[4-(4-methylphenyl)piperazin-1-yl]propan-1-one], under setting [1], the EC50 stood at 2.69 µM. As to `COc1ccc(-c2noc(CCC(=O)N3CCN(c4ccc(C(F)(F)F)cc4)CC3)n2)cc1` [3-[3-(4-methoxyphenyl)-1,2,4-oxadiazol-5-yl]-1-[4-[4-(trifluoromethyl)phenyl]piperazin-1-yl]propan-1-one], the half-maximal effective concentration (EC50) was > 30 µM.

For the compound `COc1ccc(-c2noc(CCC(=O)N3CCN(c4cccc(OC)c4)CC3)n2)cc1` [KUC103349N], the concentration for a half-maximal effect (EC50) was > 30 µM. Take `COc1ccc(-c2noc(CCCC(=O)N3CCN(c4cc(C)ccc4C)CC3)n2)cc1` [KUC103353N]: the half-maximal effective concentration (EC50) came to 3.79 µM. The compound `Cc1ccc(C)c(N2CCN(C(=O)CCc3nc(-c4ccc(F)cc4)no3)CC2)c1` [KUC103364N] came in with an EC50 of 1.27 µM.

As for `Cc1ccc(C)c(N2CCN(C(=O)CCc3nc(-c4cccc(F)c4)no3)CC2)c1` [KUC103366N], a half-maximal response (EC50) required 1.48 µM. Still for that read-out and setting: the value for `Cc1ccc(C)c(N2CCN(C(=O)CCc3nc(-c4cccc(Br)c4)no3)CC2)c1` [KUC103367N] was 1.67 µM. In turn, `COc1ccc(-c2noc(CCC(=O)N3CCN(c4ccccc4Br)CC3)n2)cc1` [KUC103370N] displayed an EC50 of 1.7 µM.

Compound `Cc1ccc(C)c(N2CCN(C(=O)CCc3nc(-c4cccc(C(F)(F)F)c4)no3)CC2)c1` [KUC103380N] registered a concentration for a half-maximal effect (EC50) of 2.5 µM. This EC50 and that of the compound before are within 1.5-fold of each other. Consider `COc1ccc(-c2noc(CCC(=O)N3CCN(c4ccc(F)cc4)CC3)n2)cc1` [KUC103398N], for which the response under setting [1] was half-maximal at 1.59 µM (EC50).

Turning to `Cc1ccc(C)c(N2CCN(C(=O)CCc3nc(-c4ccccc4F)no3)CC2)c1` [KUC103401N], the midpoint of the response, the EC50, lay at 1.82 µM. Same read-out and setting: the value for `Cc1ccc(C)c(N2CCN(C(=O)CCc3nc(-c4ccc(N(C)C)cc4)no3)CC2)c1` [KUC103409N] was 2.77 µM; that for `COc1ccc(-c2noc(CCC(=O)N3CCC(c4cc(C)ccc4C)CC3)n2)cc1` [KUC103432N] was 1.22 µM; that for `COc1ccc(-c2ccc(CCC(=O)N3CCN(c4cc(C)ccc4C)CC3)o2)cc1` [KUC103447N] was > 30 µM. Under setting [1], `Cc1ccc(C)c(N2CCN(C(=O)CCc3nc(-c4ccccc4)no3)CC2)c1` [UNM-0000306070] displayed a 50% effective concentration (EC50) of 1.64 µM.

On to `COc1ccccc1-c1noc(CCC(=O)N2CCN(c3cc(C)ccc3C)CC2)n1` [UNM-0000306071], for which, under setting [1], it took 15.1 µM to reach a half-maximal effect (EC50). Against the preceding compound, the EC50 is about 9.2-fold higher. For the compound `Cc1ccc(C)c(N2CCN(C(=O)CCc3nc(-c4ccc(Br)cc4)no3)CC2)c1` [UNM-0000306072], the EC50 was 2.97 µM. `COc1ccc(-c2noc(CCC(=O)N3CCN(c4ccccc4C(F)(F)F)CC3)n2)cc1` [UNM-0000306082] showed an EC50 of 1.69 µM. Turning to `Cc1ccc(C)c(N2CCN(C(=O)CCc3nc(-c4ccc(Cl)cc4)no3)CC2)c1` [UNM-0000306083], the concentration for a half-maximal effect (EC50) was 1.83 µM. The same measure, in the same setting: the value for `Cc1ccc(C)c(N2CCN(C(=O)CCc3nc(-c4cccc(Cl)c4)no3)CC2)c1` [UNM-0000306086] was 4.97 µM; that for `COc1ccc(-c2noc(CCC(=O)N3CCN(c4ccc(Cl)cc4)CC3)n2)cc1` [UNM-0000306121] was > 30 µM. As for `COc1ccc(-c2noc(CCC(=O)N3CCN(c4cccc(C)c4)CC3)n2)cc1` [UNM-0000306125], the concentration for a half-maximal effect (EC50) was > 30 µM. Turning to `COc1ccc(-c2cccc(CCC(=O)N3CCN(c4cc(C)ccc4C)CC3)c2)cc1` [UNM-0000306127], the EC50 was > 30 µM.

Consider `COc1ccc(-c2cc(CCC(=O)N3CCN(c4cc(C)ccc4C)CC3)[nH]n2)cc1` [UNM-0000306150], for which the EC50 is > 30 µM.

As usually defined, the EC50 is the midpoint of the concentration-response curve. Low values mean higher potency in that assay, high ones lower potency in that assay.
